# Assay results taken from patent publication USRE37781E1, “Substituted cyclic carbonyls and derivatives thereof useful as retroviral protease inhibitors” (DuPont Pharmaceuticals Company, priority 1991, dated 2002).
# Read-outs that look alike come from different tables or passages of the source.
# What was measured:
# [1] = target: single-chain tethered dimer of HIV protease (Human immunodeficiency virus 1, UniProt P04585); assay: biochemical; format: biochemical; design: fused on or other part: A second copy of the same protease unit is joined to the first by a short peptide tether, giving one polypeptide
# Method: HIV Protease Inhibition Assay—HPLC Method
# Active protease was prepared as described therein by extraction with 67% acetic acid, dilution 33-fold with water, dialysis against water and then against a “refolding buffer” consisting of 20 mM MES, 1 mM dithiothreitol and 10% glycerol. Protease was stored as a stock preparation at 10 uM in refolding buffer.
# Substrate: Peptide of sequence: aminobenzoyl-Ala-Thr-His-Gln-Val-Tyr-Phe(NO2)-Val-Arg-Lys-Ala containing p-nitrophenylalanine, was prepared by solid phase synthesis as previously described Cheng et al., op.cit. Stock solutions of 2 mM substrate were prepared in DMSO.
# Inhibitory compounds were dissolved in sufficient DMSO to make 3 mM stock solutions. All further dilutions were prepared in “assay buffer”: 1M NaCl, 50 mM MES, pH 5.5, 1 mM EDTA, 1 mM DTT, […] glycerol.
# Enzyme reaction: In a 2 ml screw-cap centrifuge tube were added 50 ul protease (final concentration 0.25 nM) and 0.1 ml inhibitory compound (final concentration […]). After 15 min preincubation at room temperature, the reaction was started with the addition of 0.05 ml substrate (final concentration 5 uM). Incubation was carried out at 30 C. for 1 hr. The reaction was stopped with 1 ml 0.1M ammonium hydroxide.
# HPLC measurement of product formation: The product (aminobenzoyl-Ala-Thr-His-Gln-Val-Tyr) was separated from substrate on a Pharmacia MonoQ anion exchange column. The injection volume was 0.2 ml. The mobile phases were: A (20 mM trisHCl, pH 9.0, 0.02% sodium Azide, 10% acetonitrile), B (20 mM tris HCl, pH 9.0, 0.02% sodium azide, 0.5M ammonium formate, 10% acetonitrile). The mobile phases were pumped at 1 ml/min, with a gradient from 0 to 30% B in 5 min, 100% B for 4 min to wash the column, and a re-equilibration for 4 min. The retention time of the product was 3.6 min. Detection with a Shimadzu model RF535 fluorescence monitor was at 330 nm (excitation) and 430 (emission).
# HIV-1 (RF) in MT-2 cells = assay: microbe, parasite or virus in culture; format: cell-based
# Method: DNA Plasmids and in vitro RNA transcripts:
# Plasmid pDAB 72 containing both gag and pol sequences of BH10 (bp 113-1816) cloned into PTZ 19R was prepared according to Erickson-Viitanen et al. AIDS Research and Human Retroviruses 1989, 5, 577. The plasmid was linearized with Bam HI prior to the generation of in vitro RNA transcripts using the Riboprobe Gemini system II kit (Promega) with T7 RNA polymerase. Synthesized RNA was purified by treatment with RNase free DNAse (Promega), phenol-chloroform extraction, and ethanol precipitation. RNA transcripts were dissolved in water, and stored at −70° C. The concentration of RNA was determined from the A260.
# Biotinylated capture probes were purified by HPLC after synthesis on an Applied Biosystems (Foster City, Calif.) DNA synthesizer by addition of biotin to the 5′ terminal end of the oligonucleotide, using the biotin-phosphoramidite reagent of Cocuzza, Tet. Lett. 1989, 30, 6287. The gag biotinylated capture probe (5-biotin-[…] 3′) was complementary to nucleotides 889-912 of HXB2 and the pol biotinylated capture probe (5′-biotin-[…] 3′) was complementary to nucleotides 2374-2395 of HXB2. Alkaline phosphatase conjugated oligonucleotides used as reporter probes were prepared by Syngene (San Diego, Calif.). The pol reporter probe (5′ […] 3′) was complementary to nucleotides 2403-2425 of HXB2. The gag reporter probe (5′ […] 3′) was complementary to nucleotides 950-973 of HXB2. All nucleotide positions are those of the GenBank Genetic Sequence Data Bank as accessed through the Genetics Computer Group Sequence Analysis Software Package (Devereau Nucleic Acids Research 1984, 12, 387). The reporter probes were prepared as 0.5μM stocks in 2× SSC (0.3M NaCl, 0.03M sodium citrate), 0.05M Tris pH 8.8, 1 mg/mL BSA. The biotinylated capture probes were prepared as 10 μM stocks in water.
# Streptavidin coated plates:
# Nunc-immunomodule microtiter plate strips were coated by addition of 200 μL of streptavidin (30 ug/mL, Scripps, La Jolla, Calif.) in freshly prepared 10 mM sodium carbonate (pH 9.6). Plates were incubated overnight at 4° C. Streptavidin solution was aspirated from the wells and a blocking buffer composed of phosphate buffered saline (PBS), 20 mg/mL bovine serum albumin (crystalline, nuclease and protease free, Calbiochem) and 100 mg/mL lactose (Sigma) was added to the plates for 3 hrs at room temperature. Blocking buffer was removed from the wells, which were allowed to dry overnight at room temperature and subsequently stored at 4° C. in zip lock bags with desiccant. For the majority of the compound evaluation experiments, streptavidin coated plates were obtained from Du Pont Biotechnology Systems (Boston, Mass.).
# MT-2, CEM, and H9 cells were maintained in RPMI 1640 supplemented with 5% fetal calf serum (FCS), 2 mM L-glutamine and 50 μg/mL gentamycin, all from Gibco. Laboratory strains of HIV-1 (RF, MN and IIIB) were propagated in H9 cells in the same medium. Virus stocks were prepared approximately 1 month after acute infection of H9 cells by clarification of the tissue culture medium and storage of aliquots at −70° C. […] Each aliquot of virus stock used for infection was thawed only once. In some cases, infected H9 cells were shifted to Dulbecco's modified Eagle's medium 3-10 days before collection of virus in order to generate virus stocks in medium with low biotin content. Clinical isolates of HIV that had been passaged once in MT-2 cells were used to infect fresh MT-2 cells in RPMI medium. Three days after infection, cells were pelleted, resuspended and culture continued in Dulbecco's modified Eagle's medium as above. Virus stocks of clinical isolates were prepaid 10-15 days after infection when cytopathic effects were apparent in the culture.
# [2] = Table 2d, class symbols, read-out: HPLC K1
# [3] = read-out: HPLC Ki, Table 1d, lower part
# [4] = Human immunodeficiency virus 1, MT2, HIV RNA assay, HIV-1 infected MT-2 cells, class symbols, read-out: IC90
# [5] = Human immunodeficiency virus 1, MT2, 24 h, Table 1d, upper part, read-out: IC90
# [6] = Human immunodeficiency virus 1, MT2, Table 1e, read-out: IC90
smiles,measurement,setting,value
C=CCN1C(=O)N(CC=C)C(CC(C)C)C(O)C(O)C1CC(C)C (stereo not drawn) [Example 16I],Ki,"[1]; read-out: K4 HPLC, Table 2e",< 10 nM
O=C1N(CC2CC2(c2ccccc2)c2ccccc2)C(Cc2ccccc2)C(O)C(O)C(Cc2ccccc2)N1CC1CC1(c1ccccc1)c1ccccc1 (stereo not drawn) [Example 14F],Ki,[1]; [2],10 to 1000 nM
O=C1N(Cc2ccccc2)C(Cc2ccc(OCCO)cc2)C(O)C(O)C(Cc2ccc(OCCO)cc2)N1Cc1ccccc1 (stereo not drawn) [20AM],Ki,"[1]; Table 2i, read-out: HPLC Ki",< 10 nM
CC(N)C(=O)Nc1cccc(CN2C(=O)N(Cc3cccc(NC(=O)C(C)N)c3)C(Cc3ccccc3)C(O)C(O)C2Cc2ccccc2)c1 (stereo not drawn) [15U],Ki,[1]; [2],< 10 nM
O=C1N(CC2CC2)C(Cc2ccccc2)C(=NO)C(O)C(Cc2ccccc2)N1CC1CC1 (stereo not drawn) [Example 7AB],Ki,[1]; [3],> 1000 nM
CNc1noc2ccc(CN3C(=O)N(Cc4ccc5onc(NC)c5c4)C(Cc4ccccc4)C(O)C(O)C3Cc3ccccc3)cc12 (stereo not drawn) [15DK],Ki,"[1]; Table 2d, HIV protease inhibition, HPLC method, read-out: HPLC K1",< 10 nM
CCCCC1C(O)C(O)C(CCCC)N(Cc2ccccc2)C(=O)N1Cc1ccccc1 (stereo not drawn) [Example 16AG],Ki,"[1]; Table 2e, read-out: K4 HPLC",> 1000 nM
O=C1N(c2ccccc2)C(Cc2ccccc2)C(O)C(O)C(Cc2ccccc2)N1c1ccccc1 (stereo not drawn) [Example 14G],Ki,"[1]; read-out: HPLC K1, Table 2d, class symbols",10 to 1000 nM
C=CCOC1C(O)C(Cc2ccccc2)N(CC2CC2)C(=O)N(CC2CC2)C1Cc1ccccc1 (stereo not drawn) [Example 7AJ],Ki,[1]; [3],10 to 1000 nM
CC(=O)c1ccc(CN2C(=O)N(Cc3ccc(C(C)=O)cc3)C(Cc3ccccc3)C(O)C(O)C2Cc2ccccc2)cc1 (stereo not drawn) [20J],Ki,"[1]; Table 2i, read-out: HPLC Ki",10 to 1000 nM
CCC(CC)CC1C(O)C(O)C(CC(CC)CC)N(Cc2ccccc2)C(=O)N1Cc1ccccc1 (stereo not drawn) [Example 16AM],Ki,"[1]; Table 2e, read-out: K4 HPLC",10 to 1000 nM
COC1C(OC)C(Cc2ccccc2)N(CC2CC2)C(=O)N(CC2CC2)C1Cc1ccccc1 (stereo not drawn) [Example 7AF],Ki,[1]; [3],> 1000 nM
CC(=NO)c1cccc(CN2C(=O)N(Cc3cccc(C(C)=NO)c3)C(Cc3ccccc3)C(O)C(O)C2Cc2ccccc2)c1 (stereo not drawn) [Example 15XS],IC90,"HIV-1 (RF) in MT-2 cells; Human immunodeficiency virus 1, MT2, 48 h, Table 2d, HIV RNA assay, read-out: IC90",< 10 µg/mL
O=C1N(Cc2ccccc2)C(CCCCCO)C(O)C(O)C(CCCCCO)N1Cc1ccccc1 (stereo not drawn) [Example 16AN],Ki,"[1]; Table 2e, read-out: K4 HPLC",> 1000 nM
CN(C)CCNC(=O)c1cccc(CN2C(=O)N(Cc3cccc(C(=O)NCCN(C)C)c3)C(Cc3ccccc3)C(O)C(O)C2Cc2ccccc2)c1 (stereo not drawn) [15XW],IC90,"HIV-1 (RF) in MT-2 cells; Table 2d, HIV RNA assay",++ (++=10 to 100 μg/mL)
CSCCC1C(O)C(O)C(CCSC)N(Cc2ccccc2)C(=O)N1Cc1ccccc1 (stereo not drawn) [Example 16AA],Ki,"[1]; Table 2e, read-out: K4 HPLC",> 1000 nM
O=C1N(Cc2ccc(CCl)cc2)[C@H](CCc2ccccc2)[C@@H](O)[C@@H](Cc2ccccc2)N1Cc1ccc(CCl)cc1 [Example 8J],Ki,"[1]; read-out: Ki (HPLC), Table 1e, cells marked (HPLC)",10 to 1000 nM
O=C1N(Cc2cccc(C(F)(F)F)c2)C(Cc2ccccc2)C(O)C(O)C(Cc2ccccc2)N1Cc1cccc(C(F)(F)F)c1 (stereo not drawn) [Example 6Y],IC90,HIV-1 (RF) in MT-2 cells; [4],> 100 µg/mL
O=C1N(Cc2ccc3ccccc3c2)C(Cc2ccccc2)C2OCOC2C(Cc2ccccc2)N1Cc1ccc2ccccc2c1 (stereo not drawn) [Example 7Q],IC90,HIV-1 (RF) in MT-2 cells; [5],10 to 100 µg/mL
O=C1N(Cc2ccc3ccccc3n2)C(Cc2ccccc2)C(O)C(O)C(Cc2ccccc2)N1Cc1ccc2ccccc2n1 (stereo not drawn) [Example 6K],IC90,HIV-1 (RF) in MT-2 cells; [4],> 100 µg/mL
O=C1N(Cc2cccc(I)c2)C(Cc2ccccc2)C(O)C(O)C(Cc2ccccc2)N1Cc1ccc2[nH]nnc2c1 (stereo not drawn) [15DT],IC90,"HIV-1 (RF) in MT-2 cells; Table 2d, HIV RNA assay",+++ (+++=<10 μg/mL)
O=C1N(CC2CC2)C(Cc2ccccc2)C2OCOC2C(Cc2ccccc2)N1CC1CC1 (stereo not drawn) [Example 7H],IC90,HIV-1 (RF) in MT-2 cells; [5],10 to 100 µg/mL
NC(=NO)c1cccc(CN2C(=O)N(Cc3cccc(C(N)=NO)c3)C(Cc3ccccc3)C(O)C2CCc2ccccc2)c1 (stereo not drawn) [Example 8AF],IC90,HIV-1 (RF) in MT-2 cells; Table 1e,+++ (+++=<10 μg/mL)
CNC(=O)OCCCCCCN1C(=O)N(CCCCCCOC(C)=O)C(Cc2ccccc2)C(O)C(O)C1Cc1ccccc1 (stereo not drawn) [Example 12X],IC90,"HIV-1 (RF) in MT-2 cells; Human immunodeficiency virus 1, MT2, 48 h, Table 2d, class symbols, read-out: IC90",< 10 µg/mL
O=C1N(Cc2ccc3ccccc3c2)C(CCc2ccccc2)[C@@H](O)[C@@H](Cc2ccccc2)N1Cc1ccc2ccccc2c1 (stereo partly drawn) [Example 8G],IC90,HIV-1 (RF) in MT-2 cells; [6],> 50 µg/mL
"Nc1ccn([C@H]2CC[C@@H](CO)O2)c(=O)n1 [dideoxycytidine, reference compound]",IC90,"HIV-1 (RF) in MT-2 cells; Human immunodeficiency virus 1, MT2, virus inoculum standardisation, HIV-1 (RF), MT-2 cells, read-out: IC50 value (concentration of compound required to reduce the HIV RNA level by 90%)",0.2 µg/mL
O=C1N(Cc2ccc3ccccc3c2)C(Cc2ccccc2)C(O)C(C(Br)Cc2ccccc2)N1Cc1ccc2ccccc2c1 (stereo not drawn) [Example 8R],IC90,HIV-1 (RF) in MT-2 cells; [6],> 50 µg/mL
O=C1N(Cc2ccc(C(F)(F)F)cc2)C(Cc2ccccc2)C(O)C(O)C(Cc2ccccc2)N1Cc1ccc(C(F)(F)F)cc1 (stereo not drawn) [Example 6W],IC90,HIV-1 (RF) in MT-2 cells; [4],> 100 µg/mL
NC(=NO)c1cccc(CN2C(=O)N(Cc3cccc(C(N)=NO)c3)C(Cc3ccccc3)C(O)C2CCc2ccccc2)c1 (stereo not drawn) [Example 8AO],IC90,HIV-1 (RF) in MT-2 cells; Table 1e,+ (+=>100 μg/mL)
COC(=O)c1cccc(CN2C(=O)N(Cc3cccc(C(=O)OC)c3)C(Cc3ccccc3)C(O)C2CCc2ccccc2)c1 (stereo not drawn) [Example 8AQ],IC90,HIV-1 (RF) in MT-2 cells; [6],> 100 µg/mL
O=C1N(Cc2ccc3ccccc3c2)C(C(F)Cc2ccccc2)[C@@H](O)[C@@H](Cc2ccccc2)N1Cc1ccc2ccccc2c1 (stereo partly drawn) [Example 7X],IC90,HIV-1 (RF) in MT-2 cells; [6],> 100 µg/mL
C=CCN1C(=O)N(CC=C)C(Cc2ccccc2)C2OCSCOC2C1Cc1ccccc1 (stereo not drawn) [Example 7B],IC90,HIV-1 (RF) in MT-2 cells; [5],10 to 100 µg/mL
COC(=O)c1cccc(CN2C(=O)N(Cc3cccc(C(=O)OC)c3)[C@H](Cc3ccccc3)[C@H](O)[C@H]2CCc2ccccc2)c1 [Example 8Y],IC90,HIV-1 (RF) in MT-2 cells; [6],10 to 100 µg/mL
